≈ marks a conversion by molar mass, not a printed value. Read-outs that look alike come from different tables or passages of the source.
Key:
E. coli (strain DH5α) = assay: E. coli growth inhibition assay (MIC on agar plates); assay type: cell-based; conditions: for MIC: Escherichia coli, read-out: minimum inhibitory concentration (MIC)
From the text: E. coli growth inihibition assay. […] The minimal inhibitory concentration (MIC) was reported as the lowest concentration at which no colonies formed.

human cells = conditions: cited from earlier work
human leukocytes = conditions: cited from earlier work
eDHFR = biological target: T1, eDHFR (Escherichia coli, UniProt P0ABQ4); assay: biochemical; parameters: species or system E. coli; conditions: terbium-complexed probe 20 nM, purified eDHFR-GFP, non-linear least-squares fit; read-out: dissociation constant for binding to eDHFR
T1 construct: pRSETb-EGFP-eDHFR expressed the protein fusion […]-[EGFP]-GSGGSG-[eDHFR]; His6 leader of pRSETb ([…]) (N); made in house; host or cells: E. coli BL21 DE3 (pLysS)

[1] = biological target: eDHFR expressed on the cell surface of NIH3T3 fibroblasts (Escherichia coli, UniProt P0ABQ4); assay: Labeling of cell surface-expressed eDHFR (pDisplay-eDHFR) on NIH3T3 fibroblasts, microscopy; assay type: cell-based; conditions: 1 μM, 10 min, time-resolved imaging
[2] = test system: nucleus-targeted pfDHFR (K27E, C59R, S108N) soluble domain in NIH 3T3 fibroblast cells; conditions: 500 nM, ca. 15 minutes
[3] = biological target: GFP-cldn1/tailΔYV (GFP-cldn1/tail construct lacking the C-terminal YV motif) (human) (UniProt O95832); assay: intermolecular TR-FRET microscopy in living MDCK cells; sensitized GFP emission at 520 nm
[4] = biological target: T2, GFP-cldn1/tail (N-terminal fusion of EGFP to the C-terminal cytoplasmic domain, residues 187-211, of human … (human, UniProt O95832 187-211, not fully specified)); assay: as above
T2 construct: Expressed in living MDCK cells; GFP is the FRET acceptor; also called C-terminal cytoplasmic tail of claudin-1; not shown: enhanced GFP (EGFP) as encoded in vector pEGFP-C1 (Clontech)
T2 chain (looked up): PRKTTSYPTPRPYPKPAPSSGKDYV

[5] = biological target: T2, GFP-cldn1/tail (N-terminal fusion of …); assay: intermolecular TR-FRET microscopy in living MDCK cells; reference pair ZO-1/PDZ1-eDHFR and GFP-cldn1/tailΔYV

COc1cc(Cc2cnc(N)nc2N)cc(C#CCCCC(=O)O)c1OCCCCC(=O)NCCOCCOCCN [Compound 3a]
ability to cross the E. coli cell membrane (inferred from growth assay) (E. coli (strain DH5α)): cannot cross the cell membrane
MIC (E. coli (strain DH5α); 24 h): > 100 µM

CN(Cc1cnc2nc(N)nc(N)c2n1)c1ccc(C(=O)N[C@@H](CCC(=O)O)C(=O)O)cc1 [MTX, Methotrexate]
extracellular concentration at which DNA damage has been observed (human cells): 10 µM
concentration at which toxicity observed (human leukocytes): 2000 nM

COc1cc(Cc2cnc(N)nc2N)cc(OC)c1OCCCCC(=O)NCCOCCOCCNC(=O)CN(CCN(CCN(CC(=O)O)CC(=O)Nc1ccc2c(C)cc(=O)[nH]c2c1)CC(=O)O)CC(=O)O [TMP-cDTPA]
Kd (eDHFR): 9 ± 1.3 nM
cell-surface labelling of eDHFR, time-resolved mode [1]: not

CCOc1cc(Cc2cnc(N)nc2N)ccc1OCc1cc(OC)c(OCCCCC(=O)NCCOCCOCCNC(=O)OC(C)(C)C)c(OC)c1 [Compound 2a]
MIC (E. coli (strain DH5α); 37° C., 24 hours, lowest concentration at which no colonies formed): ~20 µM (≈ 15.1 µg/mL)
cell permeability (diffuse fluorescence) [2]: passively diffused into mammalian cells

B1: ZO-1/PDZ1-eDHFR (C-terminal fusion of eDHFR to the PDZ1 domain, residues 19-113, of human ZO-1) (other, human;Escherichia coli)
chain: MWEQHTVTLHRAPGFGFGIAISGGRDNPHFQSGETSIVISDVLKGGPAEGQLQENDRVAMVNGVSMDNVEHAFAVQQLRKSGKNAKITIRRKKKVQMISLIAALAVDRVIGMENAMPWNLPADLAWFKRNTLNKPVIMGRHTWESIGRPLPGRKNIILSSQPGTDDRVTWVKSVDEAIAACGDVPEIMVIGGGRVYEQFLPKAQKLYLTHIDAEVEGDTHFPDYEPDDWESVFSEFHDADAQNSHSYCFEILERR
notes: Built by inserting ZO-1 19-113 into pLL-1NLS in frame with eDHFR; also called PDZ1 domain of ZO-1
signal-to-noise ratio for intermolecular TR-FRET [3]: 1.5
signal-to-noise ratio for intermolecular TR-FRET [4]: 6.3
fold difference in TR-FRET signal against GFP-cldn1/tailΔYV [5]: > 4 fold

Reference: patent publication US20120115128A1, “SELECTIVE PROTEIN LABELING” (THE BOARD OF TRUSTEES OF THE UNIVERSITY OF ILLINOIS, priority 2009, published 2012)
